We go through one molecule from US9840520B2, “Heterocyclic hydroxamic acids as protein deacetylase inhibitors and dual protein deacetylase-protein kinase inhibitors and methods of use thereof” (The Regents of the University of Colorado, A Body Corporate, priority 2014, dated 2017).

Assay type in all cases: cell-based
In one experiment the test system is MALME-3M. The experiment in a line: NCI60 tumour cell line screen, MALME-3M. The settings on record: Homo sapiens, Melanoma.
The subject of the next experiment is KM12. The experiment is described as follows: NCI60 tumour cell line screen, KM12. Conditions: Homo sapiens; KM12, Colon Cancer.
The subject of the next experiment is SR. The experiment is described as follows: NCI60 tumour cell line screen, SR. Conditions: Homo sapiens, Leukemia.
Another experiment has as its system LOXIMVI. The experiment is described as follows: NCI60 tumour cell line screen, LOXIMVI. The settings on record: Homo sapiens, LOX IMVI, Melanoma.
A further experiment concerns SF-539. The experiment in a line: NCI60 tumour cell line screen, SF-539. The settings on record: Homo sapiens; SF-539, CNS Cancer.
Another experiment deals with COLO205. The experiment in a line: NCI60 tumour cell line screen, COLO205. The settings on record: Homo sapiens, COLO 205; COLO205, Colon Cancer.
The next experiment deals with NCI-H226. The experiment is described as follows: NCI60 tumour cell line screen, NCI-H226. The settings on record: Homo sapiens; NCI-H226, Non-Small Cell Lung Cancer.
In the next experiment the test system is HT29. The experiment is described as follows: NCI60 tumour cell line screen, HT29. Conditions: Homo sapiens, HT-29; HT29, Colon Cancer.
A further experiment has as its system HCT-15. The experiment is described as follows: NCI60 tumour cell line screen, HCT-15. Conditions: Homo sapiens; HCT-15, Colon Cancer.
The next experiment deals with PC-3. The experiment in a line: NCI60 tumour cell line screen, PC-3. Conditions: Homo sapiens; PC-3, Prostate Cancer.
The next experiment relates to RPMI-8226. The experiment in a line: NCI60 tumour cell line screen, RPMI-8226. The settings on record: Homo sapiens; RPMI-8226, Leukemia.
For a further experiment, the system named is MDA-MB-231/ATCC. The experiment is described as follows: NCI60 tumour cell line screen, MDA-MB-231/ATCC. The settings on record: Homo sapiens, Breast Cancer.
In the next experiment the test system is T-47D. The experiment in a line: NCI60 tumour cell line screen, T-47D. The settings on record: Homo sapiens, T47D, Breast Cancer.
In a further experiment the test system is HCT-116. The experiment is described as follows: NCI60 tumour cell line screen, HCT-116. The settings on record: Homo sapiens; HCT-116, Colon Cancer.

Each structure is given as a SMILES string.

Consider `O=C(CCCCCOc1ccc(Nc2nc(NC3CCCCC3)c3nc[nH]c3n2)cc1)NO` [Example 3, 6-(4-(6-(cyclohexylamino)-9H-purin-2-ylamino)phenoxy)-N-hydroxyhexanamide], for which the concentration for 50% growth inhibition (GI50) came out at 2.49 µM in the experiment on MALME-3M; 1.74 µM in the experiment with KM12; 0.669 µM with SR; 1.18 µM in the experiment with LOXIMVI; 1.57 µM in the experiment with SF-539; 1.26 µM in the experiment on COLO205. Besides, the GI50 in the experiment on NCI-H226 turned out to be 2.88 µM; with HT29 it was 2.54 µM; with HCT-15, 4.3 µM; in the experiment with PC-3, 2.98 µM; in the experiment with RPMI-8226, 2.81 µM; in the experiment on MDA-MB-231/ATCC, 1.93 µM. Also, the GI50 in the experiment on T-47D was found to be 2.33 µM; in the experiment with HCT-116 it was 1.45 µM.

By GI50 is commonly meant the concentration giving 50% growth inhibition.
